Results from patent US8952024B2, “Herbicidal pyrimidone derivatives” (E I du Pont de Nemours and Company, priority 2009, dated 2015).

Legend:
Format in all cases: in vivo
corn (Zea mays) = test: Test B pre-/postemergence plant response
Text: (§1) Seeds of plant species selected from blackgrass (Alopecurus myosuroides), downy bromegrass (Bromus tectorum), green foxtail (Setaria viridis), Italian ryegrass (Lolium multiflorum), wheat (Triticum aestivum), wild oat (Avena fatua), deadnettle (henbit deadnettle, Lamium amplexicaule), galium (catchweed bedstraw, Galium aparine), bermudagrass (Cynodon dactylon), Surinam grass (Brachiaria decumbens), cocklebur (Xanthium strumarium), corn (Zea mays), large crabgrass (Digitaria sanguinalis), woolly cupgrass (Eriochloa villosa), giant foxtail (Setaria faberii), goosegrass (Eleusine indica), johnsongrass (Sorghum halepense), kochia (Kochia scoparia), lambsquarters (Chenopodium album), morningglory (Ipomoea coccinea), nightshade (eastern black nightshade, Solanum ptycanthum), yellow nutsedge (Cyperus esculentus), pigweed (Amaranthus retroflexus), ragweed (common ragweed, Ambrosia elatior), Russian thistle (Salsola kali), soybean (Glycine max), sunflower (common oilseed sunflower, Helianthus annuus) and velvetleaf (Abutilon theophrasti) were planted into a blend of loam soil and sand and treated preemergence with test compounds formulated in a non-phytotoxic solvent mixture which included a surfactant.
(§2) At the same time, plants selected from these crop and weed species and also winter barley (Hordeum vulgare), canarygrass (Phalaris minor), chickweed (Stellaria media) and windgrass (Apera spica-venti) were planted in pots containing Redi-Earth® planting medium (Scotts Company, 14111 Scottslawn Road, Marysville, Ohio 43041) comprising spaghnum peat moss, vermiculite, wetting agent and starter nutrients and treated with postemergence applications of some of the test chemicals formulated in the same manner. Plants ranged in height from 2 to 18 cm (1- to 4-leaf stage) for postemergence treatments.
(§3) Treated plants and controls were maintained in a greenhouse for 13 to 15 days, after which time all treated plants were visually evaluated and compared to controls. Plant response ratings, summarized in Table B, are based on a scale of 0 to 100 where 0 is no effect and 100 is complete control. A dash (-) response means no test result.

[1] = test system: morningglory (Ipomoea coccinea); test: Test B pre-/postemergence plant response
Text: as §1, §2, §3

[2] = test system: Italian ryegrass (Lolium multiflorum); test: Test B pre-/postemergence plant response
Text: as §1, §2, §3

[3] = test system: blackgrass (Alopecurus myosuroides); test: Test B pre-/postemergence plant response
Text: as §1, §2, §3

[4] = test system: ragweed (common ragweed, Ambrosia elatior); test: Test B pre-/postemergence plant response
Text: as §1, §2, §3

soybean (Glycine max) = test: Test B pre-/postemergence plant response
Text: as §1, §2, §3

[5] = test system: bermudagrass (Cynodon dactylon); test: Test B pre-/postemergence plant response
Text: as §1, §2, §3

[6] = test system: Surinam grass (Brachiaria decumbens); test: Test B pre-/postemergence plant response
Text: as §1, §2, §3

[7] = test system: ducksalad (Heteranthera limosa); test: Test B flooded paddy test; details: for Plant response rating, Flood, Ducksalad: 250 g ai/ha, flooded paddy test, visual rating on 0 to 100 scale (0 no effect, 100 complete control) after 13 to 15 days; for Plant response rating, Ducksalad: Flood (flooded paddy test), 13 to 15 days; for Ducksalad plant response rating: Flood, 31 g ai/ha, scale 0 to 100 (0 no effect, 100 complete control)
Method in brief: (§4)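 Visual scores run from 0 (no effect) to 100 (complete control), assigned by comparison with controls 13 to 15 days after treatment. Test compounds went straight into water standing 3 cm above the soil, around plants at the 2-leaf stage kept in a greenhouse.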

[8] = test system: umbrella sedge (Cyperus difformis); test: Test B flooded paddy test; details: for Plant response rating, Flood, Sedge, Umbrella: 250 g ai/ha, flooded paddy test, visual rating on 0 to 100 scale (0 no effect, 100 complete control) after 13 to 15 days; for Plant response rating, Sedge, Umbrella: Flood (flooded paddy test), 13 to 15 days; for Sedge, Umbrella plant response rating: Flood, 31 g ai/ha, scale 0 to 100 (0 no effect, 100 complete control)
Method in brief: as §4

rice (Oryza sativa) = test: Test B flooded paddy test; details: for Plant response rating, Flood, Rice: 250 g ai/ha, flooded paddy test, visual rating on 0 to 100 scale (0 no effect, 100 complete control) after 13 to 15 days; for Plant response rating, Rice: Flood (flooded paddy test), 13 to 15 days; for Rice plant response rating: Flood, 31 g ai/ha, scale 0 to 100 (0 no effect, 100 complete control)
Method in brief: as §4

[9] = test system: barnyardgrass (Echinochloa crus-galli); test: Test B flooded paddy test; details: for Plant response rating, Flood, Barnyardgrass: 250 g ai/ha, flooded paddy test, visual rating on 0 to 100 scale (0 no effect, 100 complete control) after 13 to 15 days; for Plant response rating, Barnyardgrass: Flood (flooded paddy test), 13 to 15 days; for Barnyardgrass plant response rating: Flood, 31 g ai/ha, scale 0 to 100 (0 no effect, 100 complete control)
Method in brief: as §4

[10] = Postemergence, 31 g ai/ha, 0 to 100 scale (0 no effect, 100 complete control)
[11] = Postemergence, 62 g ai/ha, scale 0 to 100 (0 no effect, 100 complete control)
[12] = Postemergence, 125 g ai/ha, scale 0 (no effect) to 100 (complete control), 13 to 15 days
[13] = Postemergence, 250 g ai/ha, scale 0 to 100 (0 no effect, 100 complete control), 13 to 15 days
[14] = 62 g ai/ha, scale of 0 to 100 where 0 is no effect and 100 is complete control
[15] = 125 g ai/ha, scale 0 to 100, 0 is no effect, 100 is complete control
[16] = Preemergence, 31 g ai/ha, scale 0 to 100 (0 no effect, 100 complete control)
[17] = Preemergence, 62 g ai/ha, scale 0 to 100 (0 no effect, 100 complete control)
[18] = Preemergence, 125 g ai/ha, scale 0 to 100, 0 no effect, 100 complete control
[19] = Preemergence, 250 g ai/ha, 0 to 100 scale

COCCCn1c(-c2cccc(F)c2)ncc(C(=O)C2=C(O)C3CCC(C3)C2=O)c1=O (stereo not drawn) [Compound 238]
Plant response rating, Corn (corn (Zea mays); [10]): 80 | Plant response rating, Corn (corn (Zea mays); [11]): 80 | Plant response rating, Corn (corn (Zea mays); [12]): 95 | Plant response rating, Corn (corn (Zea mays); [13]): 95 | Plant response rating, Morningglory [1, 12]: 100 | Plant response rating, Morningglory [1, 13]: 100 | Plant response rating, Ryegrass, Italian [2, 10]: 20 | Plant response rating, Ryegrass, Italian [2, 11]: 25 | Plant response rating, Ryegrass, Italian [2, 12]: 25 | Plant response rating, Ryegrass, Italian [2, 13]: 70 | Plant response rating, Blackgrass [3, 10]: 40 | Plant response rating, Blackgrass [3, 11]: 60 | Plant response rating, Blackgrass [3, 12]: 60 | Plant response rating, Blackgrass [3, 13]: 70 | Plant response rating, Ragweed [4, 10]: 100 | Plant response rating, Ragweed [4, 11]: 100 | Plant response rating, Ragweed [4, 12]: 100 | Plant response rating, Ragweed [4, 13]: 100 | Plant response rating, Soybean (soybean (Glycine max); [10]): 98 | Plant response rating, Soybean (soybean (Glycine max); [11]): 100 | Plant response rating, Soybean (soybean (Glycine max); [12]): 100 | Plant response rating, Soybean (soybean (Glycine max); [13]): 100 | Plant response rating, Bermudagrass [5, 10]: 95 | Plant response rating, Bermudagrass [5, 11]: 98 | Plant response rating, Bermudagrass [5, 12]: 100 | Plant response rating, Bermudagrass [5, 13]: 100 | Plant response rating, Surinam Grass [6, 10]: 95 | Plant response rating, Surinam Grass [6, 11]: 100 | Plant response rating, Surinam Grass [6, 12]: 100 | Plant response rating, Surinam Grass [6, 13]: 100 | Plant response rating, Flood, Ducksalad [7]: 100 | Plant response rating, Ducksalad [7, 14]: 40 | Plant response rating, Ducksalad [7, 15]: 80 | Ducksalad plant response rating [7]: 0 | Plant response rating, Flood, Sedge, Umbrella [8]: 80 | Plant response rating, Sedge, Umbrella [8, 14]: 0 | Plant response rating, Sedge, Umbrella [8, 15]: 65 | Sedge, Umbrella plant response rating [8]: 0 | Plant response rating, Flood, Rice (rice (Oryza sativa)): 0 | Plant response rating, Rice (rice (Oryza sativa); [14]): 0 | Plant response rating, Rice (rice (Oryza sativa); [15]): 0 | Rice plant response rating (rice (Oryza sativa)): 0 | Plant response rating, Flood, Barnyardgrass [9]: 40 | Plant response rating, Barnyardgrass [9, 14]: 0 | Plant response rating, Barnyardgrass [9, 15]: 30 | Barnyardgrass plant response rating [9]: 0

CCc1ccccc1-n1c(-c2ccccc2)ncc(C(=O)C2=C(O)CCCC2=O)c1=O [Compound 255]
Plant response rating, Corn (corn (Zea mays); [10]): 60 | Plant response rating, Corn (corn (Zea mays); [11]): 75 | Plant response rating, Corn (corn (Zea mays); [12]): 85 | Plant response rating, Corn (corn (Zea mays); [13]): 85 | Plant response rating, Corn (corn (Zea mays); [16]): 0 | Plant response rating, Corn (corn (Zea mays); [17]): 0 | Plant response rating, Corn (corn (Zea mays); [18]): 0 | Corn plant response rating (corn (Zea mays); [19]): 0 | Plant response rating, Morningglory [1, 10]: 75 | Plant response rating, Morningglory [1, 11]: 85 | Plant response rating, Morningglory [1, 12]: 85 | Plant response rating, Morningglory [1, 13]: 100 | Plant response rating, Morningglory [1, 16]: 40 | Plant response rating, Morningglory [1, 17]: 55 | Plant response rating, Morningglory [1, 18]: 65 | Morningglory plant response rating [1, 19]: 90 | Plant response rating, Ryegrass, Italian [2, 10]: 10 | Plant response rating, Ryegrass, Italian [2, 11]: 30 | Plant response rating, Ryegrass, Italian [2, 12]: 30 | Plant response rating, Ryegrass, Italian [2, 13]: 80 | Plant response rating, Ryegrass, Italian [2, 16]: 0 | Plant response rating, Ryegrass, Italian [2, 17]: 0 | Plant response rating, Ryegrass, Italian [2, 18]: 10 | Ryegrass, Italian plant response rating [2, 19]: 30 | Plant response rating, Blackgrass [3, 10]: 5 | Plant response rating, Blackgrass [3, 11]: 5 | Plant response rating, Blackgrass [3, 12]: 10 | Plant response rating, Blackgrass [3, 13]: 60 | Plant response rating, Blackgrass [3, 16]: 0 | Plant response rating, Blackgrass [3, 17]: 20 | Plant response rating, Blackgrass [3, 18]: 40 | Blackgrass plant response rating [3, 19]: 60 | Plant response rating, Ragweed [4, 10]: 50 | Plant response rating, Ragweed [4, 11]: 90 | Plant response rating, Ragweed [4, 12]: 95 | Plant response rating, Ragweed [4, 13]: 95 | Plant response rating, Ragweed [4, 16]: 65 | Plant response rating, Ragweed [4, 17]: 75 | Plant response rating, Ragweed [4, 18]: 85 | Ragweed plant response rating [4, 19]: 100 | Plant response rating, Soybean (soybean (Glycine max); [10]): 95 | Plant response rating, Soybean (soybean (Glycine max); [11]): 95 | Plant response rating, Soybean (soybean (Glycine max); [12]): 100 | Plant response rating, Soybean (soybean (Glycine max); [13]): 100 | Plant response rating, Soybean (soybean (Glycine max); [16]): 0 | Plant response rating, Soybean (soybean (Glycine max); [17]): 0 | Plant response rating, Soybean (soybean (Glycine max); [18]): 15 | Soybean plant response rating (soybean (Glycine max); [19]): 80 | Plant response rating, Bermudagrass [5, 10]: 90 | Plant response rating, Bermudagrass [5, 11]: 95 | Plant response rating, Bermudagrass [5, 12]: 95 | Plant response rating, Bermudagrass [5, 13]: 100 | Plant response rating, Bermudagrass [5, 16]: 100 | Plant response rating, Bermudagrass [5, 17]: 100 | Plant response rating, Bermudagrass [5, 18]: 100 | Bermudagrass plant response rating ([5]; Preemergence, 250 g ai/ha, 0 to 100 scale, 0 no effect, 100 complete control): 100 | Plant response rating, Surinam Grass [6, 10]: 80 | Plant response rating, Surinam Grass [6, 11]: 80 | Plant response rating, Surinam Grass [6, 12]: 90 | Plant response rating, Surinam Grass [6, 13]: 90 | Plant response rating, Surinam Grass [6, 16]: 65 | Plant response rating, Surinam Grass [6, 17]: 85 | Plant response rating, Surinam Grass [6, 18]: 95 | Surinam Grass plant response rating [6, 19]: 100 | Plant response rating, Flood, Ducksalad [7]: 80 | Plant response rating, Ducksalad [7, 14]: 50 | Plant response rating, Ducksalad [7, 15]: 60 | Ducksalad plant response rating [7]: 0 | Plant response rating, Flood, Sedge, Umbrella [8]: 60 | Plant response rating, Sedge, Umbrella [8, 14]: 20 | Plant response rating, Sedge, Umbrella [8, 15]: 50 | Sedge, Umbrella plant response rating [8]: 0 | Plant response rating, Flood, Rice (rice (Oryza sativa)): 0 | Plant response rating, Rice (rice (Oryza sativa); [14]): 0 | Plant response rating, Rice (rice (Oryza sativa); [15]): 0 | Rice plant response rating (rice (Oryza sativa)): 0 | Plant response rating, Flood, Barnyardgrass [9]: 0 | Plant response rating, Barnyardgrass [9, 14]: 0 | Plant response rating, Barnyardgrass [9, 15]: 0 | Barnyardgrass plant response rating [9]: 0
